Measurements from patent publication US9751857B2, “Hepatitis B antiviral agents” (NOVIRA THERAPEUTICS, INC., priority 2011, dated 2017).

What was measured:
[1] = target: HBV C150Bo capsid protein (HBV CA protein) (Hepatitis B virus genotype D subtype adw, UniProt P03147, C107A/C48A/C61A/R150C); experiment: HBV assembly assay (fluorescence quenching in vitro assembly); assay type: biochemical; conditions: for Activity in HBV assembly assay: at 10 μM
[2] = system: HBV replication in HepG2-2.2.15 cells; experiment: Dot-blot assay of HBV replication; assay type: cell-based; conditions: Hepatitis B virus, 144 h
Procedure: Compounds active in the HBV assembly assay are tested for their activity and toxicity in cellular assay. In the first anti-viral assay, the ability of compounds to inhibit HBV replication in an HBV-producing hepatoma cell line using the dot-blot method is evaluated.
Briefly, confluent monolayers of HepG2-2.2.15 cells are incubated with complete medium containing various concentrations of a test compound. Three days later, the culture medium is replaced with fresh medium containing the appropriately diluted test compound. Six days following the initial administration of the test compound, the cell culture supernatant is collected, and cell lysis is performed. The samples are applied onto Nylos membranes and DNA is immobilized to the membrane by UV cross-linking. After pre-hybridization, the HBV probe is added and the hybridization is performed overnight. The membranes are exposed to the Kodak films; antiviral activity is calculated from the reduction in HBV DNA levels (EC50). The EC50 for antiviral activity is calculated from the dose response curves of active compounds.
In the first anti-viral assay, the ability of compounds to inhibit HBV replication in an HBV-producing hepatoma cell line using the dot-blot method was evaluated.
Confluent monolayers of HepG2-2.2.15 cells were incubated with complete medium containing various concentrations of a test compound. Three days later, the culture medium was replaced with fresh medium containing the appropriately diluted test compound. Six days following the initial administration of the test compound, the cell culture supernatant was collected, and cell lysis was performed. The samples were applied onto Nylos membranes and DNA was immobilized to the membrane by UV cross-linking. After pre-hybridization, the HBV probe was added and the hybridization was performed overnight. The membranes were exposed to the Kodak films; antiviral activity was calculated from the reduction in HBV DNA levels (EC50). The EC50 for antiviral activity was calculated from the dose response curves of active compounds. […]

Chain of HBV C150Bo capsid protein (HBV CA protein) (P03147 1-150 C48A/C61A/C107A/R150C): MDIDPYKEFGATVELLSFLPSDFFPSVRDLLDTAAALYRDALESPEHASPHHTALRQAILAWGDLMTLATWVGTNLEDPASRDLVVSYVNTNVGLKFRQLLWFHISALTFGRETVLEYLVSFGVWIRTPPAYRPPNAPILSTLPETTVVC

| Compound | Activity in HBV assembly assay [1] | inhibition at 10 µM [2] | EC50 in HBV assembly assay ([1]; control compounds) |
| --- | --- | --- | --- |
| O=C(Nc1cc(F)c(F)c(F)c1)c1ccc(F)c(S(=O)(=O)N2CCC(O)C(F)C2)c1 (single isomer, unassigned) [960D1] | + (‘+’ indicates >50% activity at 10 μM) | > 50% |  |
| O=C(Nc1cc(F)c(F)c(F)c1)c1ccc(F)c(S(=O)(=O)N2CCC(O)C(F)C2)c1 (single isomer, unassigned) [960D2] | + (‘+’ indicates >50% activity at 10 μM) |  |  |
| CC1CN(S(=O)(=O)c2cccc(C(=O)Nc3cc(F)c(F)c(F)c3)c2)CCC1O (stereo not shown) [610D2] | + (‘+’ indicates >50% activity at 10 μM) | > 50% |  |
| O=C(Nc1ccc(F)c(C(F)F)c1)c1cccc(S(=O)(=O)N2CCCC2CO)c1 (stereo not shown) [677R] | + (‘+’ indicates >50% activity at 10 μM) | > 50% |  |
| O=C(Nc1ccc(F)c(Cl)c1)c1cccc(S(=O)(=O)N2CCC(O)C(Cc3ccccc3)C2)c1 (stereo not shown) [713D2] | + (‘+’ indicates >50% activity at 10 μM) | > 50% |  |
| O=C(Nc1ccc(F)c(Cl)c1)c1cccc(S(=O)(=O)N2CCC(O)C(CO)C2)c1 (stereo not shown) [719D1] | + (‘+’ indicates >50% activity at 10 μM) | > 50% |  |
| O=C(Nc1ccc(F)c(Cl)c1)c1cccc(S(=O)(=O)N2CCC(CO)C(O)C2)c1 (stereo not shown) [725D1] | + (‘+’ indicates >50% activity at 10 μM) | > 50% |  |
| CC1CN(S(=O)(=O)c2cccc(C(=O)Nc3cc(F)c(F)c(F)c3)c2)CCC1CCO (stereo not shown) [743D1] | + (‘+’ indicates >50% activity at 10 μM) | > 50% |  |
| O=C(Nc1ccc(F)c(C(F)F)c1)c1cccc(S(=O)(=O)N2CCC(O)C(F)C2)c1 (stereo not shown) [820D2] | + (‘+’ indicates >50% activity at 10 μM) | > 50% |  |
| O=C(Nc1cc(F)c(F)c(C(F)F)c1)c1cccc(S(=O)(=O)N2CCC(O)C(F)C2)c1 (stereo not shown) [824D2] | + (‘+’ indicates >50% activity at 10 μM) | > 50% |  |
| O=C(Nc1ccc(F)c(Br)c1)c1cccc(S(=O)(=O)NC2CCCC(O)C2)c1 (stereo not shown) [867D2] | + (‘+’ indicates >50% activity at 10 μM) | > 50% |  |
| O=C(Nc1cc(F)c(F)c(F)c1)c1ccc(F)c(S(=O)(=O)C2CCC(CO)C(O)C2)c1 (stereo not shown) [946D2] | + (‘+’ indicates >50% activity at 10 μM) | > 50% |  |
| O=C(Nc1ccc(F)c(Cl)c1)c1ccc(F)c(S(=O)(=O)N2CCC(CO)C(O)C2)c1 (stereo not shown) [955D1] | + (‘+’ indicates >50% activity at 10 μM) | > 50% |  |
| O=C(Nc1ccc(F)c(Cl)c1)c1ccc(F)c(S(=O)(=O)N2CCC(CO)C(O)C2)c1 (stereo not shown) [955D2] | + (‘+’ indicates >50% activity at 10 μM) |  |  |
| O=C(Nc1ccc(F)c(Cl)c1)c1ccc(Cl)c(S(=O)(=O)N2CCCC2CO)c1 (stereo not shown) [1094S] | + (‘+’ indicates >50% activity at 10 μM) | > 50% |  |
| O=C(Nc1ccc(F)c(Cl)c1)c1cc(S(=O)(=O)NC2CC(O)C2)ccc1Cl (stereo not shown) [1134CT2] | + (‘+’ indicates >50% activity at 10 μM) | > 50% |  |
| O=C(Nc1cc(F)c(F)c(Cl)c1)c1ccc(F)c(S(=O)(=O)N2CCC(O)C(F)C2)c1 (stereo not shown) [1135D1] | + (‘+’ indicates >50% activity at 10 μM) | > 50% |  |
| O=C(Nc1cc(F)c(F)c(F)c1)c1cc(S(=O)(=O)NC2CC(O)C2)c(F)cc1Cl (stereo not shown) [1374CT1] | + (‘+’ indicates >50% activity at 10 μM) | > 50% |  |
| O=C(Nc1cc(F)c(F)c(F)c1)c1cc(S(=O)(=O)NC2CC(O)C2)c(F)cc1Cl (stereo not shown) [1374CT2] | + (‘+’ indicates >50% activity at 10 μM) |  |  |
| O=C(Nc1ccc(F)c(F)c1)c1cc(S(=O)(=O)NC2CC(O)C2)c(F)cc1Cl (stereo not shown) [1378CT2] | + (‘+’ indicates >50% activity at 10 μM) | > 50% |  |

| Compound | Activity in HBV assembly assay [1] | inhibition at 10 µM [2] | EC50 in HBV assembly assay ([1]; control compounds) |
| --- | --- | --- | --- |
| COC(=O)C1=C(C)NC(c2ccccn2)=NC1c1ccc(F)cc1Cl (stereo not shown) [HAP-1, reference compound] |  |  | consistent with the literature |
| O=C(Nc1cccc(Br)c1)c1cccc(S(=O)(=O)N2CCC(CO)CC2)c1 [compound 065] | + (‘+’ indicates >50% activity at 10 μM) | > 50% |  |
| O=C(Nc1cccc(Br)c1)c1cccc(S(=O)(=O)N2CC(O)C2)c1 [compound 078] | + (‘+’ indicates >50% activity at 10 μM) | > 50% |  |
| CN(CCO)S(=O)(=O)c1cccc(C(=O)Nc2cccc(Br)c2)c1 [compound 079] | + (‘+’ indicates >50% activity at 10 μM) | > 50% |  |
| CC(=O)N1CCN(S(=O)(=O)c2cccc(C(=O)Nc3cccc(Br)c3)c2)CC1 [compound 119] | + (‘+’ indicates >50% activity at 10 μM) | > 50% |  |
| CCCC(=O)N1CCN(S(=O)(=O)c2cccc(C(=O)Nc3cccc(Br)c3)c2)CC1 [compound 121] | + (‘+’ indicates >50% activity at 10 μM) | > 50% |  |
| O=C(Nc1cccc(Br)c1)c1cccc(S(=O)(=O)N2CCN(c3ccncc3)CC2)c1 [compound 126] | + (‘+’ indicates >50% activity at 10 μM) | > 50% |  |
| O=C(Nc1cccc(Br)c1)c1cccc(S(=O)(=O)N2CCN(C(=O)C3(O)CC3)CC2)c1 [compound 129] | + (‘+’ indicates >50% activity at 10 μM) | > 50% |  |
| Cc1cc(NC(=O)c2cccc(S(=O)(=O)N3CCN(C(=O)C4CC4)CC3)c2)ccc1F [compound 148] | + (‘+’ indicates >50% activity at 10 μM) | > 50% |  |
| COC1CN(S(=O)(=O)c2cccc(C(=O)Nc3cccc(Cl)c3)c2)C1 [compound 191] | + (‘+’ indicates >50% activity at 10 μM) | > 50% |  |
| O=C(Nc1ccc(F)c(Cl)c1)c1cccc(S(=O)(=O)N2CCCC2CO)c1 (stereo not shown) [compound 208] | + (‘+’ indicates >50% activity at 10 μM) | > 50% |  |
| O=C(Nc1cc(F)c(F)c(F)c1)c1cccc(S(=O)(=O)N2CCC(CO)CC2)c1 [compound 258] | + (‘+’ indicates >50% activity at 10 μM) | > 50% |  |
| O=C(Nc1cc(F)c(F)c(F)c1)c1cccc(S(=O)(=O)N2CCC(O)CC2)c1 [compound 318] | + (‘+’ indicates >50% activity at 10 μM) | > 50% |  |
| CN(CCO)S(=O)(=O)c1cccc(C(=O)Nc2ccc(F)cc2)c1 [compound 332] | + (‘+’ indicates >50% activity at 10 μM) | > 50% |  |
| CN(CC(O)CO)S(=O)(=O)c1cccc(C(=O)Nc2cccc(Cl)c2)c1 (stereo not shown) [compound 366] | + (‘+’ indicates >50% activity at 10 μM) | > 50% |  |
| O=C(Nc1ccc(F)c(Br)c1)c1cccc(S(=O)(=O)N2CC(O)C2)c1 [compound 407] | + (‘+’ indicates >50% activity at 10 μM) | > 50% |  |
| N#Cc1cc(NC(=O)c2cccc(S(=O)(=O)N3CCC(O)CC3)c2)ccc1F [compound 419] | + (‘+’ indicates >50% activity at 10 μM) | > 50% |  |
| Cc1cc(NC(=O)c2cccc(S(=O)(=O)N3CCC(C)(CO)CC3)c2)ccc1F [compound 478] | + (‘+’ indicates >50% activity at 10 μM) | > 50% |  |
| O=C(Nc1ccc(F)c(Cl)c1)c1cccc(S(=O)(=O)N2CCC(O)(CO)CC2)c1 [compound 501] | + (‘+’ indicates >50% activity at 10 μM) | > 50% |  |
| O=C(Nc1ccc(F)c(Cl)c1)c1cccc(S(=O)(=O)N2CCC(O)(c3ccccc3)CC2)c1 [compound 541] | + (‘+’ indicates >50% activity at 10 μM) | > 50% |  |
